Test results as given in publication PMC5552351, “Bacteriological profiling of diphenylureas as a novel class of antibiotics against methicillin-resistant Staphylococcus aureus” (PLoS ONE, 2017).

System: S. aureus NRS107 (RN4220)
Test: accumulation of UDP-N-acetylmuramyl pentapeptide (HPLC-MS)
Type: cell-based, Staphylococcus aureus
Conditions: 10 × MIC, 30 minutes
Description: The accumulation of UDP-N-acetylmuramyl pentapeptide was detected using a procedure described in a previous study, with the following modifications. S. aureus NRS107 (RN4220), in early logarithmic growth stage (OD600 ~ 0.60), was incubated with 130 μg/mL chloramphenicol for 15 minutes at 37°C. […] Untreated samples served as a negative control. Samples were centrifuged at 10,000 rpm for five minutes, the supernatant discarded, and the pellet re-suspended in sterile deionzined water (1 mL). The pellet was boiled at […] for 30 minutes before samples were chilled on ice for 10 minutes. UDP-N-acetylmuramyl-pentapeptide was measured using an Agilent High Performance Liquid Chromatography coupled to a time-of-flight Mass Spectrometer (HPLC-MS). A Waters XBridge Phenyl (2.1 × 100 mm, 3.5 μm) chromatography column was used, with mobile phases of water, 0.1% formic acid (Buffer A) and acetonitrile, 0.1% formic acid (Buffer B). A gradient of 5–20% Buffer B over 14 minutes was used, with a flow rate of 0.3 mL/min. An electrospray source was used, in positive ionization mode. Extracted Ion Chromatograms (EIC) were generated at a mass-to-charge ratio (m/z) of 1150.3588 (20 ppm window). Mass error for UDP-N-acetylmuramyl-pentapeptide was <1 ppm.

SMILES: C/C(=N\NC(=N)N)c1ccc(NC(=O)Nc2ccc(OCCC(C)C)cc2)cc1 [compound 1]
- UDP-N-acetylmuramyl pentapeptide accumulation: notable increase
